# In patent US8476261B2, “Spirocyclic aminoquinolones as GSK-3 inhibitors” (Kyorin Pharmaceutical Co., Ltd., priority 2007, dated 2013):
# Biological target: T1, recombinant full-length human GSK3β (Homo sapiens, UniProt P49841)
# T1 construct: recombinant full-length human GSK3β (Upstate); purchased Upstate
# Experiment: cell-free GSK3 kinase assay (KinaseGlo luciferase)
# Type: biochemical
# Conditions: Table 1; 5 μM ATP, 1 hour at 30 degrees Celsius
# Procedure: Proceed to KinaseGlo luciferase reaction.
# Following the completion of the kinase reaction an equal volume of KinaseGlo luciferase reagent (Promega) is added and the luminescence read using a luminescence plate reader within 5-10 minutes.
# T1 sequence (P49841 whole entry): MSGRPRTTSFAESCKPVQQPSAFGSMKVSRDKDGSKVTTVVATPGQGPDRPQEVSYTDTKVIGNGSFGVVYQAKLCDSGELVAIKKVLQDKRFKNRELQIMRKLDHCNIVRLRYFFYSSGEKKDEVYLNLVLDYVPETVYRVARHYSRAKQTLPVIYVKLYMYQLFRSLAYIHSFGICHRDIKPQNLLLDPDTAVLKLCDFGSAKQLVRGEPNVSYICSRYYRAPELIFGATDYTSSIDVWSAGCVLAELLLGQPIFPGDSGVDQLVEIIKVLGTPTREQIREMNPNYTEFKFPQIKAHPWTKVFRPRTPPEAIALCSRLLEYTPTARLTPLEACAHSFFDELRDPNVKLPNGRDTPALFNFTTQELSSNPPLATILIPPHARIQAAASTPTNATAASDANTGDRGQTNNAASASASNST
row,SMILES,IC50
1,Cc1cc(NCCNc2c(F)c(N)c3c(=O)c(C(=O)O)cn4c3c2OCC42CCCC2)nc2ccccc12 [Compound 2],61 to 150 nM
2,Nc1c(F)c(NCCCn2cncn2)c2c3c1c(=O)c(C(=O)O)cn3C1(CCCC1)CO2 [Compound 3],61 to 150 nM
3,Nc1c(F)c(NCCCNC(=O)C23CC4CC(CC(C4)C2)C3)c2c3c1c(=O)c(C(=O)O)cn3C1(CCCC1)CO2 [Compound 8],16 to 60 nM
4,Nc1c(F)c(NCCOc2ccc(F)cc2)c2c3c1c(=O)c(C(=O)O)cn3C1(CCCC1)CO2 [Compound 9],16 to 60 nM
5,Cc1cc(OCCNc2c(F)c(N)c3c(=O)c(C(=O)O)cn4c3c2OCC42CCCC2)ccc1Cl [Compound 10],16 to 60 nM
6,Nc1c(F)c(NCCOc2ccc(Cl)cc2)c2c3c1c(=O)c(C(=O)O)cn3C1(CCCC1)CO2 [Compound 12],61 to 150 nM
7,Nc1c(F)c(NCCOc2ccc(Cl)cc2Cl)c2c3c1c(=O)c(C(=O)O)cn3C1(CCCC1)CO2 [Compound 13],61 to 150 nM
8,Nc1c(F)c(NCCOc2ccc(C3CCCCC3)cc2)c2c3c1c(=O)c(C(=O)O)cn3C1(CCCC1)CO2 [Compound 17],> 150 nM
9,Nc1c(F)c(NCCS(=O)(=O)N2CCCCC2)c2c3c1c(=O)c(C(=O)O)cn3C1(CCCC1)CO2 [Compound 19],61 to 150 nM
10,Nc1c(F)c(NCC(O)Cn2cnc3ccccc32)c2c3c1c(=O)c(C(=O)O)cn3C1(CCCC1)CO2 (stereo not shown) [Compound 22],61 to 150 nM
11,Nc1c(F)c(NCCN2CCc3ccccc32)c2c3c1c(=O)c(C(=O)O)cn3C1(CCCC1)CO2 [Compound 24],61 to 150 nM
12,Cc1ccc(OCCNc2c(F)c(N)c3c(=O)c(C(=O)O)cn4c3c2OCC42CCCC2)cc1 [Compound 25],16 to 60 nM
13,CCOc1ccc(CCCNc2c(F)c(N)c3c(=O)c(C(=O)O)cn4c3c2OCC42CCCC2)cc1OCC [Compound 29],16 to 60 nM
14,CC(CCc1ccccc1Cl)Nc1c(F)c(N)c2c(=O)c(C(=O)O)cn3c2c1OCC31CCCC1 (stereo not shown) [Compound 31],16 to 60 nM
15,COc1ccc(OCCNc2c(F)c(N)c3c(=O)c(C(=O)O)cn4c3c2OCC42CCCC2)cc1 [Compound 34],61 to 150 nM
16,Nc1c(F)c(NCCCc2ccccn2)c2c3c1c(=O)c(-c1nnn[nH]1)cn3C1(CCCC1)CO2 [Compound 35],16 to 60 nM
17,Nc1c(F)c(NCCCc2ccc(Cl)cc2)c2c3c1c(=O)c(C(=O)O)cn3C1(CCCC1)CO2 [Compound 40],> 150 nM
18,Cc1cc(C)n(CCCNc2c(F)c(N)c3c(=O)c(C(=O)O)cn4c3c2OCC42CCCC2)n1 [Compound 41],16 to 60 nM
19,N=C(NO)c1cn2c3c(c(NCCCn4ccnc4)c(F)c(N)c3c1=O)OCC21CCCC1 [Compound 43],61 to 150 nM
20,Nc1c(F)c(NCCNc2ccccn2)c2c3c1c(=O)c(C(=O)O)cn3C1(CCC1)CO2 [Compound 44],16 to 60 nM
21,Nc1c(F)c(NCCNc2ccccn2)c2c3c1c(=O)c(C(=O)O)cn3CC1(CCC1)O2 [Compound 45],61 to 150 nM
22,Nc1c(F)c(NCCNc2ccccn2)c2c3c1c(=O)c(C(=O)O)cn3C1(CCO2)CC1 [Compound 46],16 to 60 nM
23,Nc1c(F)c(NCCNc2ccccn2)c2c3c1c(=O)c(C(=O)O)cn3C1(CCC1)CCO2 [Compound 47],16 to 60 nM
24,Nc1c(F)c(NCCNc2ccccn2)c2c3c1c(=O)c(C(=O)O)cn3C1(CCCC1)CCO2 [Compound 48],> 150 nM
25,CC1CC2(CCC2)n2cc(C(=O)O)c(=O)c3c(N)c(F)c(NCCNc4ccccn4)c(c32)O1 (stereo not shown) [Compound 50],> 150 nM
26,Nc1c(F)c(NCCNc2ccccn2)c2c3c1c(=O)c(C(=O)O)cn3CC1(CCC1)CO2 [Compound 51],61 to 150 nM
27,Nc1c(F)c(NCCNc2ccccn2)c2c3c1c(=O)c(C(=O)O)cn3CC1(CC1)CO2 [Compound 52],> 150 nM

# The remaining lines, values ahead:
row,IC50,SMILES
1,< 15 nM,Nc1c(F)c(NCCNc2ccccn2)c2c3c1c(=O)c(C(=O)O)cn3C1(CCCC1)CO2 [Compound 1]
2,< 15 nM,Nc1c(F)c(NCCCc2ccc(F)cc2)c2c3c1c(=O)c(C(=O)O)cn3C1(CCCC1)CO2 [Compound 4]
3,16 to 60 nM,Nc1c(F)c(NCCCN2CCCc3ccccc32)c2c3c1c(=O)c(C(=O)O)cn3C1(CCCC1)CO2 [Compound 5]
4,16 to 60 nM,CC(CCc1ccc(Cl)cc1)Nc1c(F)c(N)c2c(=O)c(C(=O)O)cn3c2c1OCC31CCCC1 (stereo not shown) [Compound 6]
5,16 to 60 nM,Nc1c(F)c(NCCCNC(=O)c2ccco2)c2c3c1c(=O)c(C(=O)O)cn3C1(CCCC1)CO2 [Compound 7]
6,< 15 nM,Nc1c(F)c(NCCSc2c[nH]c3ccccc23)c2c3c1c(=O)c(C(=O)O)cn3C1(CCCC1)CO2 [Compound 11]
7,< 15 nM,COc1ccc(OCCNc2c(F)c(N)c3c(=O)c(C(=O)O)cn4c3c2OCC42CCCC2)cc1OC [Compound 14]
8,< 15 nM,Cc1ccc2nc(C)cc(NCCNc3c(F)c(N)c4c(=O)c(C(=O)O)cn5c4c3OCC53CCCC3)c2c1 [Compound 15]
9,< 15 nM,Cc1nnc(SCCNc2c(F)c(N)c3c(=O)c(C(=O)O)cn4c3c2OCC42CCCC2)[nH]1 [Compound 16]
10,< 15 nM,Cn1ccnc1SCCNc1c(F)c(N)c2c(=O)c(C(=O)O)cn3c2c1OCC31CCCC1 [Compound 18]
11,< 15 nM,Nc1c(F)c(NCCNC2=NS(=O)(=O)c3ccccc32)c2c3c1c(=O)c(C(=O)O)cn3C1(CCCC1)CO2 [Compound 20]
12,< 15 nM,Nc1c(F)c(NCCSc2nnnn2-c2ccccc2)c2c3c1c(=O)c(C(=O)O)cn3C1(CCCC1)CO2 [Compound 21]
13,< 15 nM,CCN(CCCNc1c(F)c(N)c2c(=O)c(C(=O)O)cn3c2c1OCC31CCCC1)c1ccccc1 [Compound 23]
14,< 15 nM,Nc1c(F)c(NCCCc2ccccn2)c2c3c1c(=O)c(C(=O)O)cn3C1(CCCC1)CO2 [Compound 26]
15,< 15 nM,Nc1c(F)c(NCCCc2ccccc2Cl)c2c3c1c(=O)c(C(=O)O)cn3C1(CCCC1)CO2 [Compound 27]
16,< 15 nM,COc1ccc(CCCNc2c(F)c(N)c3c(=O)c(C(=O)O)cn4c3c2OCC42CCCC2)cc1 [Compound 28]
17,< 15 nM,Cc1cc(NCCNc2c(F)c(N)c3c(=O)c(C(=O)O)cn4c3c2OCC42CCCC2)c2ccccc2n1 [Compound 30]
18,< 15 nM,Cc1nn(C)c(C)c1CCCNc1c(F)c(N)c2c(=O)c(C(=O)O)cn3c2c1OCC31CCCC1 [Compound 32]
19,< 15 nM,N#Cc1cn2c3c(c(NCCCc4ccccn4)c(F)c(N)c3c1=O)OCC21CCCC1 [Compound 36]
20,< 15 nM,N#Cc1cn2c3c(c(NCCCn4ccnc4)c(F)c(N)c3c1=O)OCC21CCCC1 [Compound 37]
21,< 15 nM,Cc1nn(C)c(C)c1CCCNc1c(F)c(N)c2c(=O)c(C#N)cn3c2c1OCC31CCCC1 [Compound 38]
22,< 15 nM,COc1ccc(C(CCNc2c(F)c(N)c3c(=O)c(C(=O)O)cn4c3c2OCC42CCCC2)c2ccc(F)cc2)cc1 (stereo not shown) [Compound 39]
23,< 15 nM,Cc1[nH]ncc1CCCNc1c(F)c(N)c2c(=O)c(C(=O)O)cn3c2c1OCC31CCCC1 [Compound 42]
24,< 15 nM,CC1COc2c(NCCNc3ccccn3)c(F)c(N)c3c(=O)c(C(=O)O)cn(c23)C12CCC2 (stereo not shown) [Compound 49]

# Same assay, conditions: Table 2; 5 μM ATP, 1 hour at 30 degrees Celsius
row,IC50,SMILES
1,< 15 nM,N#Cc1cn2c3c(c(NCCCc4ccccn4)c(F)c(N)c3c1=O)OCC21CC1
2,< 15 nM,N#Cc1cn2c3c(c(NCCCc4cccnc4)c(F)c(N)c3c1=O)OCC21CC1
3,< 15 nM,N#Cc1cn2c3c(c(NCCCn4cccn4)c(F)c(N)c3c1=O)OCC21CC1
4,< 15 nM,N#Cc1cn2c3c(c(NCCCc4ccncc4)c(F)c(N)c3c1=O)OCC21CCCC1
